Reference: PubChem BioAssay (NCI)
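Assay format: 96-well plates, 48-hour exposure. TGI: total growth inhibition.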

How the values were obtained:
Assay in all cases: NCI tumour cell line growth inhibition, 48 h
[1] = tested on: 786-0 renal
[2] = tested on: A549 NSCLC
[3] = tested on: ACHN renal
[4] = tested on: CAKI-1 renal
[5] = tested on: CCRF-CEM leukemia
[6] = tested on: COLO 205 colon
[7] = tested on: DU-145 prostate
[8] = tested on: EKVX NSCLC
[9] = tested on: HCC-2998 colon
[10] = tested on: HCT-116 colon
[11] = tested on: HCT-15 colon
[12] = tested on: HL-60(TB) leukemia
[13] = tested on: HOP-62 NSCLC
[14] = tested on: HOP-92 NSCLC
[15] = tested on: HS 578T breast
[16] = tested on: HT29 colon
[17] = tested on: IGROV1 ovarian
[18] = tested on: K-562 leukemia
[19] = tested on: KM12 colon
[20] = tested on: LOX IMVI melanoma
[21] = tested on: M14 melanoma
[22] = tested on: MALME-3M melanoma
[23] = tested on: MCF7 breast
[24] = tested on: MDA-MB-231 breast
[25] = tested on: MDA-MB-435
[26] = tested on: MDA-N
[27] = tested on: MOLT-4 leukemia
[28] = tested on: NCI-H226 lung
[29] = tested on: NCI-H23 lung
[30] = tested on: NCI-H460 lung
[31] = tested on: NCI-H522 lung
[32] = tested on: NCI/ADR-RES ovarian
[33] = tested on: OVCAR-3 ovarian
[34] = tested on: OVCAR-4 ovarian
[35] = tested on: OVCAR-5 ovarian
[36] = tested on: OVCAR-8 ovarian
[37] = tested on: PC-3 prostate
[38] = tested on: RPMI-8226 leukemia
[39] = tested on: RXF 393 renal
[40] = tested on: SF-268 CNS
[41] = tested on: SF-295 CNS
[42] = tested on: SF-539 CNS
[43] = tested on: SK-MEL-2 melanoma
[44] = tested on: SK-MEL-28 melanoma
[45] = tested on: SK-MEL-5 melanoma
[46] = tested on: SK-OV-3 ovarian
[47] = tested on: SN12C renal
[48] = tested on: SNB-19 CNS
[49] = tested on: SNB-75 CNS
[50] = tested on: SR leukemia
[51] = tested on: SW-620 colon
[52] = tested on: T-47D breast
[53] = tested on: TK-10 renal
[54] = tested on: U251 CNS
[55] = tested on: UACC-257 melanoma
[56] = tested on: UACC-62 melanoma
[57] = tested on: UO-31 renal
[58] = tested on: A498 renal
[59] = tested on: BT-549 breast

For CC(C)(C)[Si](C)(C)OCC1CCC(n2cnc3c(=O)[nH]cnc32)O1 (stereo unspecified), the TGI [1] was > 100 µM, the TGI [2] was > 100 µM and the TGI [3] was > 100 µM. The TGI [4] was > 100 µM, the TGI [5] was > 100 µM and the TGI [6] was > 100 µM. For the same molecule, the TGI [7] was > 100 µM, the TGI [8] was > 100 µM and the TGI [9] was > 100 µM. For the same molecule, the TGI [10] was > 100 µM, the TGI [11] was > 100 µM and the TGI [12] was > 100 µM. The TGI [13] was > 100 µM, the TGI [14] was > 100 µM and the TGI [15] was > 100 µM. For the same molecule, the TGI [16] was > 100 µM, the TGI [17] was > 100 µM and the TGI [18] was > 100 µM. The TGI [19] was > 100 µM, the TGI [20] was > 100 µM and the TGI [21] was > 100 µM. For the same molecule, the TGI [22] was > 100 µM, the TGI [23] was > 100 µM and the TGI [24] was > 100 µM. For the same molecule, the TGI [25] was > 100 µM, the TGI [26] was > 100 µM and the TGI [27] was > 100 µM. The TGI [28] was > 100 µM, the TGI [29] was > 100 µM and the TGI [30] was > 100 µM. The TGI [31] was > 100 µM, the TGI [32] was > 100 µM and the TGI [33] was > 100 µM. For the same molecule, the TGI [34] was > 100 µM, the TGI [35] was > 100 µM and the TGI [36] was > 100 µM. The TGI [37] was > 100 µM, the TGI [38] was > 100 µM and the TGI [39] was > 100 µM. For the same molecule, the TGI [40] was > 100 µM, the TGI [41] was > 100 µM and the TGI [42] was > 100 µM. The TGI [43] was > 100 µM, the TGI [44] was > 100 µM and the TGI [45] was > 100 µM. The TGI [46] was > 100 µM, the TGI [47] was > 100 µM and the TGI [48] was > 100 µM. For the same molecule, the TGI [49] was 99.8 µM, the TGI [50] was > 100 µM and the TGI [51] was > 100 µM. For the same molecule, the TGI [52] was > 100 µM, the TGI [53] was > 100 µM and the TGI [54] was > 100 µM. For the same molecule, the TGI [55] was > 100 µM, the TGI [56] was > 100 µM and the TGI [57] was > 100 µM.

For Cc1nc(Cl)c2sc(=S)n(-c3ccc(F)cc3)c2n1, the TGI [1] was 11.9 µM, the TGI [58] was 7.23 µM and the TGI [2] was 25.4 µM. It also gave a TGI [3] of 26.8 µM, a TGI [59] of 12.1 µM and a TGI [4] of 3.11 µM. The TGI [5] was > 100 µM, the TGI [6] was 16.6 µM and the TGI [7] was 3.82 µM. For the same molecule, the TGI [8] was 32.9 µM, the TGI [9] was 20.3 µM and the TGI [10] was 4.15 µM. It also gave a TGI [11] of 15.1 µM, a TGI [12] of 43.2 µM and a TGI [13] of 9.73 µM. For the same molecule, the TGI [14] was 33.1 µM, the TGI [15] was 6.24 µM and the TGI [16] was 5.51 µM. The TGI [17] was 3.53 µM, the TGI [18] was > 100 µM and the TGI [19] was 25.3 µM. For the same molecule, the TGI [20] was 3.61 µM, the TGI [21] was 8.38 µM and the TGI [22] was 23.9 µM. For the same molecule, the TGI [23] was 13.2 µM, the TGI [24] was 20.7 µM and the TGI [25] was 8.68 µM. The TGI [26] was 3.95 µM, the TGI [28] was 34.6 µM and the TGI [29] was 2.52 µM. It also gave a TGI [30] of 26.5 µM, a TGI [31] of 10.9 µM and a TGI [32] of 25.5 µM. For the same molecule, the TGI [33] was 7.02 µM, the TGI [34] was 31.4 µM and the TGI [35] was 24.1 µM. The TGI [36] was 33.8 µM, the TGI [37] was 36.8 µM and the TGI [38] was > 100 µM. It also gave a TGI [39] of 21.1 µM, a TGI [40] of 5.29 µM and a TGI [41] of 22.8 µM. For the same molecule, the TGI [43] was 25.4 µM, the TGI [44] was 10.6 µM and the TGI [45] was 10.3 µM. The TGI [46] was 25.9 µM, the TGI [47] was 18.4 µM and the TGI [48] was 5.06 µM. For the same molecule, the TGI [49] was 18.1 µM, the TGI [50] was 2.99 µM and the TGI [51] was 14.1 µM. For the same molecule, the TGI [53] was 12.8 µM, the TGI [54] was 17.7 µM and the TGI [55] was 10.5 µM. For the same molecule, the TGI [56] was 24 µM and the TGI [57] was 3.17 µM.

C=C(C)[C@@H]1C[C@H]2O[C@](O)(C(=C)CC(=O)/C=C(/C)C[C@@H]3OC(=O)[C@]24O[C@@H]34)[C@H]1O was tested, and the TGI [1] was > 100 µM, the TGI [58] was > 100 µM and the TGI [2] was > 100 µM. For the same molecule, the TGI [3] was > 100 µM, the TGI [59] was > 100 µM and the TGI [4] was > 100 µM. The TGI [5] was > 100 µM, the TGI [6] was > 100 µM and the TGI [7] was > 100 µM. The TGI [8] was > 100 µM, the TGI [9] was > 100 µM and the TGI [10] was > 100 µM. For the same molecule, the TGI [11] was > 100 µM, the TGI [13] was > 100 µM and the TGI [16] was > 100 µM. For the same molecule, the TGI [17] was > 100 µM, the TGI [18] was > 100 µM and the TGI [19] was > 100 µM. For the same molecule, the TGI [20] was > 100 µM, the TGI [21] was > 100 µM and the TGI [22] was > 100 µM. For the same molecule, the TGI [23] was > 100 µM, the TGI [24] was > 100 µM and the TGI [25] was > 100 µM. For the same molecule, the TGI [26] was > 100 µM, the TGI [27] was > 100 µM and the TGI [28] was > 100 µM. The TGI [29] was > 100 µM, the TGI [30] was > 100 µM and the TGI [31] was > 100 µM. The TGI [32] was > 100 µM, the TGI [34] was > 100 µM and the TGI [35] was > 100 µM. For the same molecule, the TGI [36] was > 100 µM, the TGI [37] was > 100 µM and the TGI [38] was > 100 µM. For the same molecule, the TGI [39] was > 100 µM, the TGI [40] was > 100 µM and the TGI [41] was > 100 µM. For the same molecule, the TGI [42] was > 100 µM, the TGI [43] was > 100 µM and the TGI [44] was > 100 µM. The TGI [45] was > 100 µM, the TGI [46] was > 100 µM and the TGI [47] was > 100 µM. For the same molecule, the TGI [48] was > 100 µM, the TGI [49] was > 100 µM and the TGI [50] was > 100 µM. For the same molecule, the TGI [51] was > 100 µM, the TGI [52] was > 100 µM and the TGI [53] was > 100 µM. For the same molecule, the TGI [54] was > 100 µM, the TGI [55] was > 100 µM and the TGI [56] was > 100 µM. The TGI [57] was > 100 µM.

For O=C(CBr)N1CCC2(CC1)SSC1(CCN(C(=O)CBr)CC1)S2, the TGI [1] was 1.81 µM, the TGI [2] was 3.95 µM and the TGI [3] was 2.87 µM. It also gave a TGI [6] of 1.13 µM, a TGI [10] of 1.29 µM and a TGI [11] of 2.96 µM. The TGI [15] was 4.29 µM, the TGI [18] was > 100 µM and the TGI [21] was 2.86 µM. For the same molecule, the TGI [24] was 4.57 µM, the TGI [25] was 4.48 µM and the TGI [26] was 2.81 µM. For the same molecule, the TGI [29] was 3.13 µM, the TGI [30] was 3.48 µM and the TGI [32] was 4.32 µM. The TGI [35] was 3.03 µM, the TGI [36] was 4.62 µM and the TGI [37] was 3.38 µM. It also gave a TGI [41] of 3.51 µM, a TGI [42] of 3.09 µM and a TGI [44] of 4.55 µM. It also gave a TGI [46] of 2.71 µM, a TGI [47] of 3.71 µM and a TGI [48] of 3.48 µM. It also gave a TGI [51] of 1.21 µM, a TGI [55] of 12.9 µM and a TGI [56] of 2.96 µM. It also gave a TGI [57] of 2.01 µM.
